# Measurements published in patent US11980626B2, “Compositions for treatment of breast and prostate cancer” (Kembi Therapeutics Pty Ltd, priority 2017, dated 2024).
# Columns and labels:
# CYP17 [1] = assay: Progesterone response in ER+ breast cancer patients; format: in vivo, human; settings: vs. patients treated with abiraterone and prednisone (Abi/Pred), FIG. 20
# Method: (§1) Subjects that fulfill the Inclusion Criteria captured in Table 4 were administered seviteronel (600 mg for male subjects, 4×150 mg tablets; 450 mg for female subjects, 3×150 mg tablets) once daily until any of the criteria in Table 2 are met. Table 5 captures the clinical screening data and screening schedule for the various screens for each of the male subjects.
# as §1, with “tablets) and dexamethasone (0.5 mg)” for “tablets)”
# (§2) Blood samples were collected for evaluation of steroid hormone changes as a pharmacodynamics indicator of CYP17 inhibition over time e.g., DHEA, DHEA-S, androstenedione, testosterone, cortisol, corticosterone, progesterone, pregnenolone, estradiol, estrone and ACTH).
# CYP17 [2] = assay: Endocrine profile (steroid hormone changes) in prostate cancer patients; format: in vivo, human; settings: seviteronel 600 mg once daily, FIG. 7
# Method: (§3) Males that fulfill the Inclusion Criteria captured in Table 1 were administered seviteronel (600 mg; 4×150 mg tablets) once daily until any of the criteria in Table 2 are met. Table 3 captures the clinical screening data and screening schedule for the various screens for each of the male subjects.
# as §3, with “tablets) and dexamethasone (0.5 mg)” for “tablets)”
# as §2
smiles,measurement,setting,value
"CC(C)C(O)(c1ccc2cc(OC(F)F)c(OC(F)F)cc2c1)c1c[nH]nn1 (centres unmarked) [SEVI, 1-(6,7-Bis(difluoromethoxy)naphthalen-2-yl)-2-methyl-1-(1H-1,2,3-triazol-4-yl)propan-1-ol]",increase in progesterone,CYP17 [1],lack of clinically relevant increase
same,"""up-stream"" steroids change",CYP17 [2],limited increase
same,ACTH change,CYP17 [2],modest ACTH increase
same,androgen change,CYP17 [2],modest androgen decline
same,cortisol change,CYP17 [2],modest cortisol decrease
